Parameters: species or system patients
Conditions: human, in vivo
Procedure: The intrapelvic perfusion therapy with cancer therapeutic agent of the present invention was carried out as explained below.
The perfusion was continued 30 minutes with keeping the difference between injection and aspiration flow rate was kept 20-25 [ml/min]. After performing this intrapelvic perfusion therapy, the blood of the intrapelvic circulation was dialyzed for 30 min.

For `N.N.[Cl][Pt][Cl]` [Cisplatin], the “percentage of drug leading from pelvic to systemic compartment during drug infusion” value was “about 20%”.

Reference: patent US7914478B2, “Intrapelvic perfusion therapy with cancer therapeutic agent and apparatus for intrapelvic perfusion with cancer therapeutic agent” (priority 2002, dated 2011)
